# ChEMBL document CHEMBL3885881, “DrugMatrix”
# Species on record: Rattus norvegicus
# Test: DrugMatrix - Regimen: Daily Repeat
# Assay type: toxicity, organism-based, Sprague-Dawley
# Parameters: regimen Daily Repeat, gender Male, age 6-8 weeks
# Conditions: in vivo, po, route oral GAVAGE, vehicle .5 % CMC; for BASOPHIL / EOSINOPHIL / ERYTHROCYTE COUNT / HEMATOCRIT / HEMOGLOBIN / LEUKOCYTE COUNT / LYMPHOCYTE / MEAN CORPUSCULAR HEMOGLOBIN / MEAN CORPUSCULAR HEMOGLOBIN CONCENTRATION / MEAN CORPUSCULAR VOLUME / MONOCYTE / NEUTROPHIL / PLATELET COUNT: tissue Blood; for ALANINE AMINOTRANSFERASE / ALBUMIN / ALKALINE PHOSPHATASE / ASPARTATE AMINOTRANSFERASE / BLOOD UREA NITROGEN / CHLORIDE / CHOLESTEROL / CREATINE PHOSPHOKINASE / CREATININE / GLUCOSE / PHOSPHORUS / POTASSIUM / SODIUM / TOTAL BILIRUBIN / TOTAL PROTEIN: tissue Plasma
# [1] = 40 mg/kg, 72 h, dose level Low, time 3 day
# [2] = 40 mg/kg, 120 h, dose level Low, time 5 day
# [3] = 99 mg/kg, 72 h, dose level High, time 3 day
# [4] = 99 mg/kg, 120 h, dose level High, time 5 day
smiles,measurement,setting,value
CO[C@H]1/C=C/O[C@@]2(C)Oc3c(C)c(O)c4c(O)c(c(/C=N/N5CCN(C)CC5)c(O)c4c3C2=O)NC(=O)/C(C)=C\C=C\[C@H](C)[C@H](O)[C@@H](C)[C@@H](O)[C@@H](C)[C@H](OC(C)=O)[C@@H]1C [RIFAMPIN],BASOPHIL,[1],0%
same,EOSINOPHIL,[1],0%
same,ERYTHROCYTE COUNT,[1],6.01 x10E6/uL
same,HEMATOCRIT,[1],36.73%
same,HEMOGLOBIN,[1],14.33 G/DL
same,LEUKOCYTE COUNT,[1],9.07 x10E3/uL
same,LYMPHOCYTE,[1],88%
same,MEAN CORPUSCULAR HEMOGLOBIN,[1],23.83 pg
same,MEAN CORPUSCULAR HEMOGLOBIN CONCENTRATION,[1],39.03 G/DL
same,MEAN CORPUSCULAR VOLUME,[1],61.1 fL
same,MONOCYTE,[1],2.33%
same,NEUTROPHIL,[1],9.67%
same,PLATELET COUNT,[1],1111.33 x10E3/uL
same,ALANINE AMINOTRANSFERASE,[1],36 u/L
same,ALBUMIN,[1],3.6 G/DL
same,ALKALINE PHOSPHATASE,[1],274 u/L
same,ASPARTATE AMINOTRANSFERASE,[1],60 u/L
same,BLOOD UREA NITROGEN,[1],9 mg/dL
same,CHLORIDE,[1],108 MEQ/L
same,CHOLESTEROL,[1],63.33 mg/dL
same,CREATINE PHOSPHOKINASE,[1],115.33 u/L
same,CREATININE,[1],0.43 mg/dL
same,GLUCOSE,[1],170.33 mg/dL
same,PHOSPHORUS,[1],11.3 mg/dL
same,POTASSIUM,[1],6.6 MEQ/L
same,SODIUM,[1],152.67 MEQ/L
same,TOTAL BILIRUBIN,[1],0.33 mg/dL
same,TOTAL PROTEIN,[1],5.73 G/DL
same,BASOPHIL,[2],0%
same,EOSINOPHIL,[2],0%
same,ERYTHROCYTE COUNT,[2],6.22 x10E6/uL
same,HEMATOCRIT,[2],36.5%
same,HEMOGLOBIN,[2],14.57 G/DL
same,LEUKOCYTE COUNT,[2],14.23 x10E3/uL
same,LYMPHOCYTE,[2],89.33%
same,MEAN CORPUSCULAR HEMOGLOBIN,[2],23.47 pg
same,MEAN CORPUSCULAR HEMOGLOBIN CONCENTRATION,[2],39.93 G/DL
same,MEAN CORPUSCULAR VOLUME,[2],58.8 fL
same,MONOCYTE,[2],2.67%
same,NEUTROPHIL,[2],8%
same,PLATELET COUNT,[2],1082.67 x10E3/uL
same,ALANINE AMINOTRANSFERASE,[2],42.33 u/L
same,ALBUMIN,[2],3.7 G/DL
same,ALKALINE PHOSPHATASE,[2],325 u/L
same,ASPARTATE AMINOTRANSFERASE,[2],62.67 u/L
same,BLOOD UREA NITROGEN,[2],13.67 mg/dL
same,CHLORIDE,[2],107.33 MEQ/L
same,CHOLESTEROL,[2],78.33 mg/dL
same,CREATINE PHOSPHOKINASE,[2],142 u/L
same,CREATININE,[2],0.57 mg/dL
same,GLUCOSE,[2],180.33 mg/dL
same,PHOSPHORUS,[2],10.97 mg/dL
same,POTASSIUM,[2],6.63 MEQ/L
same,SODIUM,[2],150.33 MEQ/L
same,TOTAL BILIRUBIN,[2],0.3 mg/dL
same,TOTAL PROTEIN,[2],6.03 G/DL
same,BASOPHIL,[3],0%
same,EOSINOPHIL,[3],0.33%
same,ERYTHROCYTE COUNT,[3],5.7 x10E6/uL
same,HEMATOCRIT,[3],35.03%
same,HEMOGLOBIN,[3],13.93 G/DL
same,LEUKOCYTE COUNT,[3],12.7 x10E3/uL
same,LYMPHOCYTE,[3],89%
same,MEAN CORPUSCULAR HEMOGLOBIN,[3],24.47 pg
same,MEAN CORPUSCULAR HEMOGLOBIN CONCENTRATION,[3],39.77 G/DL
same,MEAN CORPUSCULAR VOLUME,[3],61.5 fL
same,MONOCYTE,[3],2%
same,NEUTROPHIL,[3],8.67%
same,PLATELET COUNT,[3],1047.33 x10E3/uL
same,ALANINE AMINOTRANSFERASE,[3],41 u/L
same,ALBUMIN,[3],3.8 G/DL
same,ALKALINE PHOSPHATASE,[3],360.33 u/L
same,ASPARTATE AMINOTRANSFERASE,[3],60 u/L
same,BLOOD UREA NITROGEN,[3],10.67 mg/dL
same,CHLORIDE,[3],106.67 MEQ/L
same,CHOLESTEROL,[3],93.67 mg/dL
same,CREATINE PHOSPHOKINASE,[3],139 u/L
same,CREATININE,[3],0.43 mg/dL
same,GLUCOSE,[3],166.33 mg/dL
same,PHOSPHORUS,[3],11.6 mg/dL
same,POTASSIUM,[3],6.4 MEQ/L
same,SODIUM,[3],153 MEQ/L
same,TOTAL BILIRUBIN,[3],0.3 mg/dL
same,TOTAL PROTEIN,[3],6.1 G/DL
same,BASOPHIL,[4],0%
same,EOSINOPHIL,[4],0.33%
same,ERYTHROCYTE COUNT,[4],5.79 x10E6/uL
same,HEMATOCRIT,[4],34.87%
same,HEMOGLOBIN,[4],13.73 G/DL
same,LEUKOCYTE COUNT,[4],17.13 x10E3/uL
same,LYMPHOCYTE,[4],85%
same,MEAN CORPUSCULAR HEMOGLOBIN,[4],23.73 pg
same,MEAN CORPUSCULAR HEMOGLOBIN CONCENTRATION,[4],39.4 G/DL
same,MEAN CORPUSCULAR VOLUME,[4],60.23 fL
same,MONOCYTE,[4],2%
same,NEUTROPHIL,[4],12.67%
same,PLATELET COUNT,[4],1010.67 x10E3/uL
same,ALANINE AMINOTRANSFERASE,[4],46 u/L
same,ALBUMIN,[4],3.6 G/DL
same,ALKALINE PHOSPHATASE,[4],384.33 u/L
same,ASPARTATE AMINOTRANSFERASE,[4],64.33 u/L
same,BLOOD UREA NITROGEN,[4],11.33 mg/dL
same,CHLORIDE,[4],108.33 MEQ/L
same,CHOLESTEROL,[4],75 mg/dL
same,CREATINE PHOSPHOKINASE,[4],143 u/L
same,CREATININE,[4],0.5 mg/dL
same,GLUCOSE,[4],177.67 mg/dL
same,PHOSPHORUS,[4],11.1 mg/dL
same,POTASSIUM,[4],6.3 MEQ/L
same,SODIUM,[4],149.33 MEQ/L
same,TOTAL BILIRUBIN,[4],0.37 mg/dL
same,TOTAL PROTEIN,[4],5.67 G/DL
